Measurements from ChEMBL document CHEMBL1201862, “PubChem BioAssay data set” (2004).
“And” between values parts separate entries of the source, which are not always exact repeats. Equal values may be shown once. The source made the active and inactive calls.

What was measured:
Format in all cases: functional
[1] = molecular target: Sphingosine 1-phosphate receptor 2 (Homo sapiens, UniProt O95136); test: Dose Response Cell Based Assay for Antagonists of the S1P2 Receptor. [Related pubchem assays: 856, 736 ]
Sequence of Sphingosine 1-phosphate receptor 2 (O95136 whole entry): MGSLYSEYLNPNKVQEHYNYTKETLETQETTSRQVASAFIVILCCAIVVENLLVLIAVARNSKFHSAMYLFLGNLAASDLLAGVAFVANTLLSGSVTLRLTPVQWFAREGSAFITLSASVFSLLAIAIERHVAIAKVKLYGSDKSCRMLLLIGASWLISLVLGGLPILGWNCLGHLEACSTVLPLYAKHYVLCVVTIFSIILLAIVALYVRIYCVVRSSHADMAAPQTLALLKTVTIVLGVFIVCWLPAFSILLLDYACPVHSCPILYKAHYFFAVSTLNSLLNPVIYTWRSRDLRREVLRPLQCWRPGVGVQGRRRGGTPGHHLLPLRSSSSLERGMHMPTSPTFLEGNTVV

[2] = molecular target: E3 ubiquitin-protein ligase Mdm2 (Homo sapiens, UniProt Q00987); test: MDM2-luc reporter signal enhancers, multi-concentration potency testing, MDM2 ubiquitin-protein ligase inhibitor program, whole-cell format, luminescence detection, 384-well microplate (AID 1394);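 further: MDM2 E3 inhibitors raise luminescence so EC50 is for signal enhancement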
Sequence of E3 ubiquitin-protein ligase Mdm2 (Q00987 whole entry): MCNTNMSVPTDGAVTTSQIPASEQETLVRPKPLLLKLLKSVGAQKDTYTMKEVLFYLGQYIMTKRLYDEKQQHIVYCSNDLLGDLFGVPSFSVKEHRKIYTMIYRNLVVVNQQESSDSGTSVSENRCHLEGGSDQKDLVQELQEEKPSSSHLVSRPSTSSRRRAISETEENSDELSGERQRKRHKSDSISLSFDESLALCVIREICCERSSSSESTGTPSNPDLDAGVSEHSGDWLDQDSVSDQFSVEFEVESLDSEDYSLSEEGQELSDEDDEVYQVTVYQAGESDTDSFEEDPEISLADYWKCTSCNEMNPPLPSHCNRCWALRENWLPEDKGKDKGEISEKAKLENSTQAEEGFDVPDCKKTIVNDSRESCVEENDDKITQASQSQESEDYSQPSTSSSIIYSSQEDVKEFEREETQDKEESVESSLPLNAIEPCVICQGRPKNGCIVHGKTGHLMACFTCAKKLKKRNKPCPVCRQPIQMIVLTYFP

[3] = molecular target: T1, Tyrosine-protein phosphatase non-receptor type 7 (Homo sapiens, UniProt P35236); test: HePTP tyrosine phosphatase activity blockers – biochemical, absorbance, leukemia target, primary screen (AID 521)
T1 sequence (P35236 whole entry): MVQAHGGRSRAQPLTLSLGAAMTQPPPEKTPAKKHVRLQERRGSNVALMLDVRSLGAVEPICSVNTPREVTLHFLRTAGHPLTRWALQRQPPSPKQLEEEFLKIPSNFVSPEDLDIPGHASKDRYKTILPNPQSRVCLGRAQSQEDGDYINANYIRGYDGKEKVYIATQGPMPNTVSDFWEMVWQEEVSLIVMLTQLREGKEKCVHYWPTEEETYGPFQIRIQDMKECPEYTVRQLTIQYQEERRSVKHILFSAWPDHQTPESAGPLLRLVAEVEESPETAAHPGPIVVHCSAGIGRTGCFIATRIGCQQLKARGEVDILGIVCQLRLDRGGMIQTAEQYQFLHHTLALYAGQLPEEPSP

[4] = molecular target: Diphosphomevalonate decarboxylase (Streptococcus pneumoniae serotype 2 (strain D39 / NCTC 7466), UniProt Q9FD53); test: diphosphomevalonate decarboxylase inhibitor confirmation – biochemical, cuvette format, coupled NADH fluorescence (AID 1028)
Sequence of Diphosphomevalonate decarboxylase (Q9FD53 whole entry): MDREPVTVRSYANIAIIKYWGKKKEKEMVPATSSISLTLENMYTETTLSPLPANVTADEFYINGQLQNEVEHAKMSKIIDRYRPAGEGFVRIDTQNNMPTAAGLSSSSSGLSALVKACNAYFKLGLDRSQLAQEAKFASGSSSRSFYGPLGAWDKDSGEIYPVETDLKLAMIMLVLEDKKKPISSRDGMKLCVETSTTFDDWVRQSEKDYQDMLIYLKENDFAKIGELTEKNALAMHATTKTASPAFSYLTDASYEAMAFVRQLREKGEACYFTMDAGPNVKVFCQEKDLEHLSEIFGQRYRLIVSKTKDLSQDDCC

O=C(Nc1ccc(F)cc1)c1sc2cc(C(F)(F)F)cnc2c1-c1cccs1
IC50 [1]: 2.73 µM (active) and 2.06 µM (active)

Cc1nn(-c2nnc(NCc3ccccc3)nn2)c(C)c1Br
EC50 [2]: 13.3 µM (not active)

O=C(CCSCCC(=O)NCc1ccco1)NCc1ccco1
IC50 [3]: 4.15 µM (active)

O=C(NCCN1CCCC1)c1ccc(-n2sc3ccccc3c2=O)cc1
IC50 [4]: 33 µM (active)
